Results from PubChem BioAssay AID342 (DTP/NCI, 2004).
Where “and” joins values, the source holds several entries; their conditions need not be identical. Equal entries are not always repeated.

Tested on: Swiss mice, Sarcoma 180 sc, mean tumor weight T/C
Experiment: NCI In Vivo Anticancer Drug Screen. Data for tumor model Sarcoma 180 (subcutaneous) in Swiss mice
Settings: endpoint: mean tumor weight, higher = larger tumour
Outline: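 Transplantable tumors were established in mice, compound was given, then survival or tumor size was recorded. The treated value was divided by the vehicle-control value.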

[1] = dose: 300.0 mg/kg/injection, schedule: Q01DX007 (ip), vehicle: carboxymethylcellulose (CMC)
[2] = dose: 500.0 mg/kg/injection, schedule: Q01DX007 (ip), vehicle: carboxymethylcellulose (CMC)
[3] = dose: 125.0 mg/kg/injection, schedule: Q01DX007 (ip), vehicle: carboxymethylcellulose (CMC)
[4] = dose: 250.0 mg/kg/injection, schedule: Q01DX007 (ip), vehicle: carboxymethylcellulose (CMC)

For `CCCCCCCCCCCCO[P+](=O)OCCCCCCCCCCCC`, the T/C (dose: 100.0 mg/kg/injection, schedule: Q01DX007 (ip), vehicle: carboxymethylcellulose (CMC)) was 111 % of control, the T/C (dose: 111.0 mg/kg/injection, schedule: Q#A X014 (ip), vehicle: carboxymethylcellulose (CMC)) was 45 % of control and the T/C (dose: 222.0 mg/kg/injection, schedule: Q01DX007 (ip), vehicle: carboxymethylcellulose (CMC)) was 47 % of control and 71 % of control. For the same compound, the T/C (dose: 250.0 mg/kg/injection, schedule: Q#A X014 (ip), vehicle: carboxymethylcellulose (CMC)) was 25 % of control, the T/C [1] was 32 % of control and the T/C (dose: 333.0 mg/kg/injection, schedule: Q01DX007 (ip), vehicle: carboxymethylcellulose (CMC)) was 63 % of control and 65 % of control. The T/C (dose: 375.0 mg/kg/injection, schedule: Q#A X014 (ip), vehicle: carboxymethylcellulose (CMC)) was 20 % of control, the T/C [2] was 42 % of control and 50 % of control and the T/C (dose: 750.0 mg/kg/injection, schedule: Q01DX007 (ip), vehicle: carboxymethylcellulose (CMC)) was 12 % of control.
In the case of `Nc1ncnc2[nH]ncc12`, the T/C (dose: 0.55 mg/kg/injection, schedule: Q#A X014 (ip), vehicle: carboxymethylcellulose (CMC)) is reported as 74 % of control, the T/C (dose: 1.1 mg/kg/injection, schedule: Q#A X014 (ip), vehicle: carboxymethylcellulose (CMC)) is reported as 79 % of control and the T/C (dose: 2.2 mg/kg/injection, schedule: Q#A X014 (ip), vehicle: carboxymethylcellulose (CMC)) is reported as 76 % of control. The T/C (dose: 4.4 mg/kg/injection, schedule: Q#A X014 (ip), vehicle: carboxymethylcellulose (CMC)) was 87 % of control.
In the case of `CNC(C)=O`, the T/C [3] is reported as 84 % of control, the T/C [4] is reported as 90 % of control and 106 % of control and the T/C [2] is reported as 71 % of control. For the same compound, the T/C (dose: 623.2 mg/kg/injection, schedule: Q01DX007 (ip), vehicle: carboxymethylcellulose (CMC)) was 72 % of control, the T/C (dose: 779.0 mg/kg/injection, schedule: Q01DX007 (ip), vehicle: carboxymethylcellulose (CMC)) was 75 % of control and the T/C (dose: 1038.66 mg/kg/injection, schedule: Q01DX007 (ip), vehicle: carboxymethylcellulose (CMC)) was 69 % of control. For the same compound, the T/C (dose: 1558.0 mg/kg/injection, schedule: Q01DX007 (ip), vehicle: carboxymethylcellulose (CMC)) was 58 % of control and the T/C (dose: 2000.0 mg/kg/injection, schedule: Q01DX007 (ip), vehicle: carboxymethylcellulose (CMC)) was 23 % of control.
For `Cc1cc(NC(=O)c2ccc(N)cc2)ccc1N=Nc1ccc(N=Nc2ccc3c(O)cc(S(=O)(=O)O)cc3c2)c2cc(S(=O)(=O)O)ccc12`, the T/C (dose: 12.5 mg/kg/injection, schedule: Q01DX007 (ip), vehicle: water) was 110 % of control, the T/C (dose: 25.0 mg/kg/injection, schedule: Q01DX007 (ip), vehicle: water) was 97 % of control and the T/C (dose: 50.0 mg/kg/injection, schedule: Q01DX007 (ip), vehicle: water) was 62 % of control.
For `CN=C(N)/N=C(\N)Nc1cc2ccccc2c2ccccc12`, the T/C (dose: 1.0 mg/kg/injection, schedule: Q01DX007 (ip), vehicle: acid diluted with saline) was 89 % of control, the T/C (dose: 2.0 mg/kg/injection, schedule: Q01DX007 (ip), vehicle: acid diluted with saline) was 93 % of control and the T/C (dose: 4.0 mg/kg/injection, schedule: Q01DX007 (ip), vehicle: acid diluted with saline) was 92 % of control.
With `O=CCC(O)C(O)C(O)CO` (configuration not stated) the T/C [3] was 86 % of control, the T/C [4] was 75 % of control and the T/C [2] was 76 % of control. For the same compound, the T/C (dose: 1000.0 mg/kg/injection, schedule: Q01DX007 (ip), vehicle: carboxymethylcellulose (CMC)) was 67 % of control.
`Cc1cc2nc(Cc3nc4cc(C)c(C)cc4[nH]3)[nH]c2cc1C` was tested, and the T/C (dose: 20.0 mg/kg/injection, schedule: Q01DX007 (ip), vehicle: carboxymethylcellulose (CMC)) was 86 % of control, the T/C (dose: 40.0 mg/kg/injection, schedule: Q01DX007 (ip), vehicle: carboxymethylcellulose (CMC)) was 85 % of control and the T/C (dose: 60.0 mg/kg/injection, schedule: Q01DX007 (ip), vehicle: carboxymethylcellulose (CMC)) was 80 % of control and 81 % of control. The T/C (dose: 80.0 mg/kg/injection, schedule: Q01DX007 (ip), vehicle: carboxymethylcellulose (CMC)) was 102 % of control, the T/C (dose: 90.0 mg/kg/injection, schedule: Q01DX007 (ip), vehicle: carboxymethylcellulose (CMC)) was 67 % of control and the T/C (dose: 120.0 mg/kg/injection, schedule: Q01DX007 (ip), vehicle: carboxymethylcellulose (CMC)) was 122 % of control. For the same compound, the T/C (dose: 160.0 mg/kg/injection, schedule: Q01DX007 (ip), vehicle: carboxymethylcellulose (CMC)) was 77 % of control, the T/C (dose: 180.0 mg/kg/injection, schedule: Q01DX007 (ip), vehicle: carboxymethylcellulose (CMC)) was 89 % of control and the T/C (dose: 210.0 mg/kg/injection, schedule: Q01DX007 (ip), vehicle: carboxymethylcellulose (CMC)) was 61 % of control. For the same compound, the T/C (dose: 270.0 mg/kg/injection, schedule: Q01DX007 (ip), vehicle: carboxymethylcellulose (CMC)) was 77 % of control, the T/C (dose: 320.0 mg/kg/injection, schedule: Q01DX007 (ip), vehicle: carboxymethylcellulose (CMC)) was 90 % of control and 100 % of control and the T/C (dose: 478.0 mg/kg/injection, schedule: Q01DX007 (ip), vehicle: carboxymethylcellulose (CMC)) was 57 % of control. The T/C (dose: 717.0 mg/kg/injection, schedule: Q01DX007 (ip), vehicle: carboxymethylcellulose (CMC)) was 65 % of control.
With `NC1C(O)C(O)C(Nc2ncnc3nc[nH]c23)OC1C(O)CO` (configuration not stated) the T/C (dose: 0.44 mg/kg/injection, schedule: Q## X000 (ip), vehicle: carboxymethylcellulose (CMC)) was 100 % of control, the T/C (dose: 0.66 mg/kg/injection, schedule: Q## X000 (ip), vehicle: carboxymethylcellulose (CMC)) was 66 % of control and the T/C (dose: 1.0 mg/kg/injection, schedule: Q## X000 (ip), vehicle: carboxymethylcellulose (CMC)) was 82 % of control. The T/C (dose: 1.5 mg/kg/injection, schedule: Q## X000 (ip), vehicle: carboxymethylcellulose (CMC)) was 72 % of control.
`CCOC(=O)c1c(C#N)c(Cl)nc(C)c1[N+](=O)[O-]` was tested, and the T/C (dose: 3.0 mg/kg/injection, schedule: Q#A X014 (ip), vehicle: carboxymethylcellulose (CMC)) was 64 % of control and the T/C (dose: 6.0 mg/kg/injection, schedule: Q#A X014 (ip), vehicle: carboxymethylcellulose (CMC)) was 70 % of control.
`O=c1cccc2n1CC1CNC[C@H]2C1` was tested, and the T/C (dose: 0.78 mg/kg/injection, schedule: Q01DX007 (ip), vehicle: saline) was 92 % of control, the T/C (dose: 1.56 mg/kg/injection, schedule: Q01DX007 (ip), vehicle: saline) was 97 % of control and the T/C (dose: 3.13 mg/kg/injection, schedule: Q01DX007 (ip), vehicle: saline) was 62 % of control and 87 % of control. For the same compound, the T/C (dose: 6.25 mg/kg/injection, schedule: Q01DX007 (ip), vehicle: saline) was 64 % of control.
`OCC1OC(n2cnc3c(=S)nc[nH]c32)C(O)C1O` (configuration not stated) was tested, and the T/C (dose: 10.7 mg/kg/injection, schedule: Q01DX007 (ip), vehicle: carboxymethylcellulose (CMC)) was 51 % of control, the T/C (dose: 17.04 mg/kg/injection, schedule: Q01DX007 (ip), vehicle: carboxymethylcellulose (CMC)) was 61 % of control and the T/C (dose: 20.0 mg/kg/injection, schedule: Q#A X014 (ip), vehicle: methylcellulose (MC)) was 63 % of control. The T/C (dose: 21.3 mg/kg/injection, schedule: Q01DX007 (ip), vehicle: carboxymethylcellulose (CMC)) was 40 % of control and 64 % of control, the T/C (dose: 28.4 mg/kg/injection, schedule: Q01DX007 (ip), vehicle: carboxymethylcellulose (CMC)) was 48 % of control and the T/C (dose: 37.5 mg/kg/injection, schedule: Q#A X014 (ip), vehicle: methylcellulose (MC)) was 56 % of control. For the same compound, the T/C (dose: 42.6 mg/kg/injection, schedule: Q01DX007 (ip), vehicle: carboxymethylcellulose (CMC)) was 42 % of control and 46 % of control, the T/C (dose: 62.0 mg/kg/injection, schedule: Q01DX007 (ip), vehicle: carboxymethylcellulose (CMC)) was 44 % of control and the T/C (dose: 75.0 mg/kg/injection, schedule: Q#A X014 (ip), vehicle: methylcellulose (MC)) was 22 % of control. The T/C (dose: 85.2 mg/kg/injection, schedule: Q01DX007 (ip), vehicle: carboxymethylcellulose (CMC)) was 41 % of control and 44 % of control, the T/C (dose: 100.0 mg/kg/injection, schedule: Q#A X014 (ip), vehicle: methylcellulose (MC)) was 20 % of control and 24 % of control and the T/C [3] was 59 % of control. The T/C [4] was 25 % of control, the T/C [1] was 21 % of control and the T/C (dose: 400.0 mg/kg/injection, schedule: Q01DX007 (ip), vehicle: carboxymethylcellulose (CMC)) was 19 % of control. The T/C (dose: 450.0 mg/kg/injection, schedule: Q01DX007 (ip), vehicle: carboxymethylcellulose (CMC)) was 11 % of control.
For `CN(C)[C@@H]1C(=O)C(C(=O)NCNC2(C(=O)O)CCCC2)=C(O)[C@@]2(O)C(=O)C3=C(O)c4c(O)cccc4[C@@](C)(O)[C@H]3C[C@@H]12`, the T/C (dose: 25.0 mg/kg/injection, schedule: Q01DX007 (ip), vehicle: saline) was 103 % of control, the T/C (dose: 50.0 mg/kg/injection, schedule: Q01DX007 (ip), vehicle: saline) was 67 % of control and the T/C (dose: 62.0 mg/kg/injection, schedule: Q01DX007 (ip), vehicle: saline) was 103 % of control. The T/C (dose: 75.0 mg/kg/injection, schedule: Q01DX007 (ip), vehicle: saline) was 41 % of control.
In the case of `Oc1ccccc1C(Nc1nc2ccccc2s1)c1ccc2cccnc2c1O` (configuration not stated), the T/C (dose: 62.0 mg/kg/injection, schedule: Q01DX007 (ip), vehicle: other) is reported as 94 % of control, the T/C (dose: 125.0 mg/kg/injection, schedule: Q01DX007 (ip), vehicle: other) is reported as 97 % of control and the T/C (dose: 250.0 mg/kg/injection, schedule: Q01DX007 (ip), vehicle: other) is reported as 46 % of control.
